Molecular target: T1, MalL (Bacillus subtilis, UniProt O06994)
T1 construct: wild-type, recombinant, monomeric
Experiment: X-ray co-crystal structure
Type: binding
Details: co-crystallised with 0.5 mM ligand, 18 °C; active site; transition-state analogue

T1 sequence (O06994 whole entry): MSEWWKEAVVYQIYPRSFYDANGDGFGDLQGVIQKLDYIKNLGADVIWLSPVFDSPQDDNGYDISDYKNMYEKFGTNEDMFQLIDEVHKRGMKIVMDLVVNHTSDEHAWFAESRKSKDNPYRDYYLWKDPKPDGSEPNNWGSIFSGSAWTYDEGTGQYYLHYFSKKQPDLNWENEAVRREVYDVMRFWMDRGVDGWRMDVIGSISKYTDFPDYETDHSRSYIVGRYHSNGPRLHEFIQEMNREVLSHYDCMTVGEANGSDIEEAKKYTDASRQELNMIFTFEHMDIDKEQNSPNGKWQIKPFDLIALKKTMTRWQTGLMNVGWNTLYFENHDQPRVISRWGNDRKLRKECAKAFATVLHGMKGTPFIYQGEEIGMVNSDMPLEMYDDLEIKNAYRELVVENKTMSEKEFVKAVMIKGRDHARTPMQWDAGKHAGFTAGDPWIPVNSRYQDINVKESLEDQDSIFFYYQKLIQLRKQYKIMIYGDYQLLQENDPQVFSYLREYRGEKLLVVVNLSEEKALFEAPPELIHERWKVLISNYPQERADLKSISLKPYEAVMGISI

Compound: OC[C@H]1NC[C@H](O)[C@@H](O)[C@@H]1O [1-deoxynojirimycin]
- X-ray co-crystal structure: Coordinates and structure factors for MalL co-crystallised with 1-deoxynojirimycin are deposited in the PDB

From paper PMC5862990, “Dynamical origins of heat capacity changes in enzyme-catalysed reactions” (Nature Communications, 2018)
